According to paper PMC6566410, “Novel Diamide-Based Benzenesulfonamides as Selective Carbonic Anhydrase IX Inhibitors Endowed with Antitumor Activity: Synthesis, Biological Evaluation and In Silico Insights” (International Journal of Molecular Sciences, 2019):

Columns and labels:
hCA IX = hCA IX (Homo sapiens, UniProt Q16790); experiment: stopped-flow CO2 hydrase assay; conditions: for Selectivity ratio I/IX: KI hCA I / KI hCA IX; for Selectivity ratio II/IX: KI hCA II / KI hCA IX
Excerpt: (§3) An Applied Photophysics stopped-flow instrument was used for assaying the CA catalysed CO2 hydration activity, as reported earlier [17]. The inhibition constants were obtained by non-linear least-squares methods using PRISM 3 and the Cheng-Prusoff equation as reported earlier, and represent the mean from at least three different determinations. The four tested CA isofoms were recombinant ones obtained in-house as reported earlier [26, 27, 28, 29].

[1] = tested on: panel of sixty cancer cell lines; experiment: NCI one-dose SRB assay, whole panel; type: cell-based; conditions: Homo sapiens, mean over the panel, 1.00E-5 Molar, read-out: Mean Growth Percent
Experimental: (§1) First, all diamide-based benzenesulfonamides herein reported 5a–h were screened for their antitumor activity at one dose (10^−5 M) assay against a panel of sixty cancer cell lines through the National Cancer Institute (NCI) Developmental Therapeutic Program (www.dtp.nci.nih.gov), according to US-NCI protocol. The cell growth and cell viability were evaluated using the sulforhodamine B (SRB) colorimetric assay.
(§2) This assay was carried out according to the protocol of the Drug Evaluation Branch, NCI, Bethesda. The cell growth and cell viability were evaluated using the sulforhodamine B (SRB) colorimetric assay, as reported earlier.

hCA I = hCA I (Homo sapiens, UniProt P00915); experiment: stopped-flow CO2 hydrase assay
hCA I, sequence (P00915 whole entry): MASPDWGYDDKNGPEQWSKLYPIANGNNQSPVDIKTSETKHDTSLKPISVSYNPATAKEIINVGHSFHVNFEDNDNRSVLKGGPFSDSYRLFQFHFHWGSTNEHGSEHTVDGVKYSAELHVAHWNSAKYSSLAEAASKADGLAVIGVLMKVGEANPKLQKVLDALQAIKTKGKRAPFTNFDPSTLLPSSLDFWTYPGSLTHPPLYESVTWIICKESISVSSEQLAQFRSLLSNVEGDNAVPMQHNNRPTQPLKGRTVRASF
Excerpt: as §3

hCA II = hCA II (Homo sapiens, UniProt P00918); experiment: stopped-flow CO2 hydrase assay
Excerpt: as §3

786-0 = experiment: NCI one-dose SRB assay; type: cell-based; conditions: Homo sapiens, 786-0 (Renal Cancer), 1.00E-5 Molar, read-out: Growth Percent
Experimental: as §1, §2

SF-539 = experiment: NCI one-dose SRB assay; type: cell-based; conditions: Homo sapiens, SF-539 (CNS Cancer), 1.00E-5 Molar, read-out: Growth Percent
Experimental: as §1, §2

NCI-H522 = experiment: NCI one-dose SRB assay; type: cell-based; conditions: Homo sapiens, NCI-H522 (Non-Small Cell Lung Cancer), 1.00E-5 Molar, read-out: Growth Percent
Experimental: as §1, §2

NCI-H460 = experiment: NCI one-dose SRB assay; type: cell-based; conditions: Homo sapiens, NCI-H460 (Non-Small Cell Lung Cancer), 1.00E-5 Molar, read-out: Growth Percent
Experimental: as §1, §2

NCI-H226 = experiment: NCI one-dose SRB assay; type: cell-based; conditions: Homo sapiens, NCI-H226 (Non-Small Cell Lung Cancer), 1.00E-5 Molar, read-out: Growth Percent
Experimental: as §1, §2

MALME-3M = experiment: NCI one-dose SRB assay; type: cell-based; conditions: Homo sapiens, MALME-3M (Melanoma), 1.00E-5 Molar, read-out: Growth Percent
Experimental: as §1, §2

U251 = experiment: NCI one-dose SRB assay; type: cell-based; conditions: Homo sapiens, U-251, U251 (CNS Cancer), 1.00E-5 Molar, read-out: Growth Percent
Experimental: as §1, §2

RPMI-8226 = experiment: NCI one-dose SRB assay; type: cell-based; conditions: Homo sapiens, RPMI-8226 (Leukemia), 1.00E-5 Molar, read-out: Growth Percent
Experimental: as §1, §2

HOP-62 = experiment: NCI one-dose SRB assay; type: cell-based; conditions: Homo sapiens, HOP-62 (Non-Small Cell Lung Cancer), 1.00E-5 Molar, read-out: Growth Percent
Experimental: as §1, §2

MDA-MB-468 = experiment: NCI one-dose SRB assay; type: cell-based; conditions: Homo sapiens, MDA-MB-468 (Breast Cancer), 1.00E-5 Molar, read-out: Growth Percent
Experimental: as §1, §2

NCI-H322M = experiment: NCI one-dose SRB assay; type: cell-based; conditions: Homo sapiens, NCI-H322M (Non-Small Cell Lung Cancer), 1.00E-5 Molar, read-out: Growth Percent
Experimental: as §1, §2

MDA-MB-231/ATCC = experiment: NCI one-dose SRB assay; type: cell-based; conditions: Homo sapiens, MDA-MB-231/ATCC (Breast Cancer), 1.00E-5 Molar, read-out: Growth Percent
Experimental: as §1, §2

ACHN = experiment: NCI one-dose SRB assay; type: cell-based; conditions: Homo sapiens, ACHN (Renal Cancer), 1.00E-5 Molar, read-out: Growth Percent
Experimental: as §1, §2

PC-3 = experiment: NCI one-dose SRB assay; type: cell-based; conditions: Homo sapiens, PC-3 (Prostate Cancer), 1.00E-5 Molar, read-out: Growth Percent
Experimental: as §1, §2

HL-60(TB) = experiment: NCI one-dose SRB assay; type: cell-based; conditions: Homo sapiens, HL-60(TB) (Leukemia), 1.00E-5 Molar, read-out: Growth Percent
Experimental: as §1, §2

HCT-15 = experiment: NCI one-dose SRB assay; type: cell-based; conditions: Homo sapiens, HCT-15 (Colon Cancer), 1.00E-5 Molar, read-out: Growth Percent
Experimental: as §1, §2

M14 = experiment: NCI one-dose SRB assay; type: cell-based; conditions: Homo sapiens, M14 (Melanoma), 1.00E-5 Molar, read-out: Growth Percent
Experimental: as §1, §2

SF-295 = experiment: NCI one-dose SRB assay; type: cell-based; conditions: Homo sapiens, SF-295 (CNS Cancer), 1.00E-5 Molar, read-out: Growth Percent
Experimental: as §1, §2

HCT-116 = experiment: NCI one-dose SRB assay; type: cell-based; conditions: Homo sapiens, HCT-116 (Colon Cancer), 1.00E-5 Molar, read-out: Growth Percent
Experimental: as §1, §2

T-47D = experiment: NCI one-dose SRB assay; type: cell-based; conditions: Homo sapiens, T47D, T-47D (Breast Cancer), 1.00E-5 Molar, read-out: Growth Percent
Experimental: as §1, §2

SF-268 = experiment: NCI one-dose SRB assay; type: cell-based; conditions: Homo sapiens, SF-268 (CNS Cancer), 1.00E-5 Molar, read-out: Growth Percent
Experimental: as §1, §2

COLO 205 = experiment: NCI one-dose SRB assay; type: cell-based; conditions: Homo sapiens, COLO 205 (Colon Cancer), 1.00E-5 Molar, read-out: Growth Percent
Experimental: as §1, §2

SK-OV-3 = experiment: NCI one-dose SRB assay; type: cell-based; conditions: Homo sapiens, SK-OV-3 (Ovarian Cancer), 1.00E-5 Molar, read-out: Growth Percent
Experimental: as §1, §2

MOLT-4 = experiment: NCI one-dose SRB assay; type: cell-based; conditions: Homo sapiens, MOLT-4 (Leukemia), 1.00E-5 Molar, read-out: Growth Percent
Experimental: as §1, §2

SK-MEL-5 = experiment: NCI one-dose SRB assay; type: cell-based; conditions: Homo sapiens, SK-MEL-5 (Melanoma), 1.00E-5 Molar, read-out: Growth Percent
Experimental: as §1, §2

DU-145 = experiment: NCI one-dose SRB assay; type: cell-based; conditions: Homo sapiens, DU-145 (Prostate Cancer), 1.00E-5 Molar, read-out: Growth Percent
Experimental: as §1, §2

Row | Structure (SMILES) | Ki (hCA IX) | Selectivity ratio I/IX (hCA IX) | Selectivity ratio II/IX (hCA IX) | activity at 10 µM [1] | Ki (hCA I) | Ki (hCA II) | activity at 10 µM (786-0) | activity at 10 µM (SF-539) | activity at 10 µM (NCI-H522) | activity at 10 µM (NCI-H460) | activity at 10 µM (NCI-H226) | activity at 10 µM (MALME-3M) | activity at 10 µM (U251) | activity at 10 µM (RPMI-8226) | activity at 10 µM (HOP-62) | activity at 10 µM (MDA-MB-468) | activity at 10 µM (NCI-H322M) | activity at 10 µM (MDA-MB-231/ATCC) | activity at 10 µM (ACHN) | activity at 10 µM (PC-3) | further results
1 | Cc1ccc(C=C(NC(=O)c2ccccc2)C(=O)Nc2ccc(S(N)(=O)=O)cc2)o1 [Compound 5h, N-(1-(5-Methylfuran-2-yl)-3-oxo-3-((4-sulfamoylphenyl)amino)prop-1-en-2-yl)benzamide] | 8.3 nM | 985 | 13.8 | 94.6% | 8180 nM | 115 nM | 98.7% | 90.2% | 85.7% | 101% | 102% | 93.2% | 88.9% | 84.7% | 95.2% | 98.7% | 106% | 97.4% | 90.9% | 90.9% | activity at 10 µM (HL-60(TB)): 94.6%; activity at 10 µM (HCT-15): 92.9%; activity at 10 µM (M14): 114%; activity at 10 µM (SF-295): 94.2%; activity at 10 µM (HCT-116): 89.1%; activity at 10 µM (T-47D): 85.8%; activity at 10 µM (SF-268): 100%; activity at 10 µM (COLO 205): 108%; activity at 10 µM (SK-OV-3): 96.5%; activity at 10 µM (MOLT-4): 88.9%; activity at 10 µM (SK-MEL-5): 82.3%; activity at 10 µM (DU-145): 99.9%
2 | NS(=O)(=O)c1ccc(NC(=O)C(=Cc2ccc(Cl)cc2)NC(=O)c2ccccc2)cc1 [Compound 5a, N-(1-(4-Chlorophenyl)-3-oxo-3-((4-sulfamoylphenyl)amino)prop-1-en-2-yl)benzamide] | 8.8 nM | 449.5 | 7.8 | 100% | 3960 nM | 68.3 nM | 95.9% | 98.8% | 90.9% | 106% | 92.9% | 96.3% | 95.3% | 109% | 91.9% | 101% | 108% | 105% | 100% | 105% | activity at 10 µM (HL-60(TB)): 101%; activity at 10 µM (HCT-15): 106%; activity at 10 µM (M14): 102%; activity at 10 µM (SF-295): 104%; activity at 10 µM (HCT-116): 93.9%; activity at 10 µM (T-47D): 95.5%; activity at 10 µM (SF-268): 96%; activity at 10 µM (COLO 205): 104%; activity at 10 µM (SK-OV-3): 97%; activity at 10 µM (MOLT-4): 103%; activity at 10 µM (SK-MEL-5): 100%; activity at 10 µM (DU-145): 107%
3 | Cc1ccc(C=C(NC(=O)c2ccccc2)C(=O)Nc2ccc(S(N)(=O)=O)cc2)cc1 [Compound 5d, N-(3-Oxo-3-((4-sulfamoylphenyl)amino)-1-(p-tolyl)prop-1-en-2-yl)benzamide] | 62.1 nM | 12.8 | 1.5 | 102% | 796 nM | 94.4 nM | 100% | 102% | 89.9% | 108% | 105% | 99% | 99% | 107% | 114% | 111% | 108% | 104% | 108% | 96.5% | activity at 10 µM (HL-60(TB)): 88.5%; activity at 10 µM (HCT-15): 90.6%; activity at 10 µM (M14): 110%; activity at 10 µM (SF-295): 106%; activity at 10 µM (HCT-116): 99.3%; activity at 10 µM (T-47D): 101%; activity at 10 µM (SF-268): 106%; activity at 10 µM (COLO 205): 117%; activity at 10 µM (SK-OV-3): 100%; activity at 10 µM (MOLT-4): 81.3%; activity at 10 µM (SK-MEL-5): 97%; activity at 10 µM (DU-145): 105%
